The results in this text go back to ChEMBL document CHEMBL1201862, “PubChem BioAssay data set” (2004).

Some test systems named below: 786-0; A498; CAKI-1; CCRF-CEM; COLO 205; HOP-62; HOP-92; K562; MCF7; MDA-MB-231; MDA-MB-435; NCI-H23; NCI/ADR-RES; OVCAR-5; SF-268; SF-295; SF-539; SK-MEL-28; SR; UACC-62.
Common to all, as to experiment: NCI anticancer screen, dose series, 48 h

Molecules are shown by their SMILES.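 Grown in 96-well plates, cells were treated for 48 hours with each compound at five concentrations. Insufficient inhibition: endpoint recorded as highest concentration tested. GI50 marks 50% less growth.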 The source made the active and inactive calls. Cut-off read from the data, not from the text of the source: active = GI50 up to about 1.1 µM and inactive = higher.

With `C=C1C(=O)O[C@@H]2C[C@@H]3[C@]4(CC[C@]5(C)[C@@H]([C@H](C)CC/C=C(\C)C=O)CC[C@@]35C)C[C@]4(CCC(=O)OC)[C@H]12`, the GI50 was 1710 nM (inactive) with 786-0; 2790 nM (inactive) with A498; 3260 nM (inactive) in the experiment on CAKI-1; 222 nM (active) with CCRF-CEM; 2390 nM (inactive) in the experiment with COLO 205; 2380 nM (inactive) in the experiment with HOP-62. Further, the GI50 in the experiment with HOP-92 is 1940 nM (inactive); with K562 it was 845 nM (active); with MCF7, 1460 nM (inactive); in the experiment with MDA-MB-231, 1950 nM (inactive); in the experiment on MDA-MB-435 it was 1510 nM (inactive); in the experiment on NCI-H23, 1840 nM (inactive). Also, the GI50 was 2350 nM (inactive) in the experiment with NCI/ADR-RES; 2160 nM (inactive) in the experiment with OVCAR-5; 1720 nM (inactive) with SF-268; 2140 nM (inactive) in the experiment with SF-295; 2000 nM (inactive) with SF-539; 2000 nM (inactive) in the experiment with SK-MEL-28. In addition, the values for the GI50 with SR and with UACC-62 were 993 nM (active) and 1560 nM (inactive), respectively.
